Test results taken from patent publication US20080269193A1, “Tetrahydroindole and Tetrahydroindazole Derivatives” (priority 2007, published 2008).
pIC50: −log10 of the molar value.

Legend:
NCl/ADR-RES cell line = test: Potency against adriamycin-resistant breast cancer cell line; format: cell-based, human; settings: vs non-fluorinated parent analog
Procedure: (§1) A panel of cancer cell lines was obtained from the DCTP Tumor Repository, National Cancer Institute (Frederick, Md.) or ATCC (Rockville, Md.). Cell cultures were maintained in Hyclone RPMI 1640 medium (Logan, Utah) supplemented with 10% fetal bovine serum and 20 mM HEPES buffer, final pH 7.2, at 37° C. with a 5% CO2 atmosphere. Cultures were maintained at sub-confluent densities. Human umbilical vein endothelial cells (HUVEC) were purchased from Clonetics, a division of Cambrex (Walkersville, Md.). Cultures were established from cryopreserved stocks using Clonetics EGM-2 medium supplemented with 20 mM HEPES, final pH 7.2, at 37° C. with a 5% CO2 atmosphere.
(§2) For proliferation assays, cells were seeded with the appropriate medium into 96 well plates at 1,000-2,500 cells per well, depending on the cell line, and were incubated overnight. The following day, test compound, DMSO solution (negative control), or Actinomycin D (positive control) was added to the appropriate wells as 10× concentrated stocks prepared in phosphate buffered saline. […] Optical density was determined for each well at […] using a Tecan GeniosPro plate reader (RTP, NC). The percentage of cell growth was determined by comparing the cell growth in the presence of test compounds to the cells treated with DMSO vehicle (control, 100% growth) and cells treated with Actinomycin D (10 μM, 0% growth).

[1] = system: MES-SA/Dx5 (MDR+) cell line; test: Potency against multi-drug resistant cell line; format: cell-based; settings: vs non-fluorinated parent analog
Procedure: as §1, §2

[2] = Oral bioavailability in rat; settings: in vivo, 10 mg/kg over 24 hours, read-out: oral bioavailability (F)
[3] = system: HSP-90 (heat shock protein 90); test: Determination of affinity for HSP-90 (purine affinity column elution); format: binding; set-up: key: +++: very high; ++: high; +: moderate; settings: elution from purine affinity column
Procedure: Affinity of test compounds for HSP-90 was determined as follows: Protein mixtures obtained from a variety of organ tissues (for example: spleen, liver and lung) were reversibly bound to a purine affinity column to capture purine-binding proteins, especially HSP-90. The purine affinity column was washed several times, and then eluted with 20 μM, 100 μM, and 500 μM of test compound. Compounds of Formula I elute HP-90 in a dose-dependent manner vs. a control elution using dimethylsulfoxide. The elution profile of Formula I compounds was determined by 1-dimensional SDS polyacrylamide gel electrophoresis. Gels were stained with a fluorescent stain such as sypro ruby (a highly sensitive fluorescent protein stain that can readily detect less than 1 fmol of total protein, i.e., less than 0.04 ng for a 40 kDa protein) or silver nitrate. The gels were imaged using a standard flat bed gel imager and the amount of protein estimated by densitometry. The percent of HSP-90 protein eluted from the column at each concentration was determined and IC50 values were calculated from these estimates.

PC-3 cell line = test: PC-3 cell proliferation assay; format: cell-based; settings: for pIC50: Homo sapiens, PC-3 cells, read-out: inhibitory activity against PC-3 cell proliferation (IC50 range)
Procedure: as §1
For proliferation assays, cells were seeded with the appropriate medium into 96 well plates at 1,000-2,500 cells per well, depending on the cell line, and were incubated overnight. The following day, test compound, DMSO solution (negative control), or Actinomycin D (positive control) was added to the appropriate wells as 10× concentrated stocks prepared in phosphate buffered saline. The cell plates were then incubated for an additional 2-5 days, depending on the cell line, to allow proliferation to occur. To measure cell density, 50 μL of WST-1 solution (Roche Applied Science, Ind.) diluted 1:5 in phosphate buffered saline was added to each well, and the cells incubated for an additional 1-5 hrs., again depending on the cell line. Optical density was determined for each well at […] using a Tecan GeniosPro plate reader (RTP, NC). The percentage of cell growth was determined by comparing the cell growth in the presence of test compounds to the cells treated with DMSO vehicle (control, 100% growth) and cells treated with Actinomycin D (10 μM, 0% growth).
Immediately after the WST-1 determination, the medium was removed from the PC-3, NCI-H460 and HUVEC cell lines, and the plates stored at −80° C. Using these assay plates, relative amounts of DNA in each well were determined using the Cyquant DNA assay kit from […] (Eugene, Oreg.) following the manufacturer's directions. Results for each compound treatment were compared to DMSO vehicle control (100%) and 10 μM Actinomycin D treated cells (0%).

Aqueous solubility = format: physicochemical; settings: water; mono hydrochloride salt

CC1(C)CC(=O)c2c(CC3CC3)nn(-c3cc(F)c(C(N)=O)c(NC4CCOCC4)c3)c2C1 [Example 48, 4-(3-(cyclopropylmethyl)-6,6-dimethyl-4-oxo-4,5,6,7-tetrahydro-1H-indazol-1-yl)-2-fluoro-6-(tetrahydro-2H-pyran-4-ylamino)benzamide]
times more potent against NCl/ADR-RES cell line (NCl/ADR-RES cell line): 3-10 times
times more potent against MES-SA/Dx5 (MDR+) cell line [1]: 4-6 times

Cc1nn(-c2cc(F)c(C(N)=O)c(NC3CCOCC3)c2)c2c1C(=O)CC(C)(C)C2 [Example 50, 2-fluoro-6-(tetrahydro-2H-pyran-4-ylamino)-4-(3,6,6-trimethyl-4-oxo-4,5,6,7-tetrahydro-1H-indazol-1-yl)benzamide]
bioavailability [2]: > 40%

CCc1nn(-c2ccc(C(N)=O)c(N[C@H]3CC[C@H](O)CC3)c2F)c2c1C(=O)CC(C)(C)C2 [Example 51, 4-(3-ethyl-6,6-dimethyl-4-oxo-4,5,6,7-tetrahydro-1H-indazol-1-yl)-3-fluoro-2-(trans-4-hydroxycyclohexylamino)benzamide]
relative binding affinity to HSP-90 [3]: +++
pIC50 (PC-3 cell line): > 6.30

CCc1nn(-c2cc(F)c(C(N)=O)c(NC3CC=CC3)c2)c2c1C(=O)CC(C)(C)C2 [Example 89, 2-(cyclopent-3-enylamino)-4-(3-ethyl-6,6-dimethyl-4-oxo-4,5,6,7-tetrahydro-1H-indazol-1-yl)-6-fluorobenzamide]
relative binding affinity to HSP-90 [3]: +++
pIC50 (PC-3 cell line): > 6.30

CCc1nn(-c2cc(F)c(C(N)=O)c(NCC(OC)OC)c2)c2c1C(=O)CC(C)(C)C2 [Example 97, 2-(2,2-dimethoxyethylamino)-4-(3-ethyl-6,6-dimethyl-4-oxo-4,5,6,7-tetrahydro-1H-indazol-1-yl)-6-fluorobenzamide]
relative binding affinity to HSP-90 [3]: +++
pIC50 (PC-3 cell line): > 6.30

C#CCN1CCC(Nc2cc(-n3nc(C(F)F)c4c3CC(C)(C)CC4=O)ccc2C(N)=O)CC1 [Example 106, 4-(3-(difluoromethyl)-6,6-dimethyl-4-oxo-4,5,6,7-tetrahydro-1H-indazol-1-yl)-2-(1-(prop-2-ynyl)piperidin-4-ylamino)benzamide]
inhibition of PC-3 cell line growth, times more (PC-3 cell line; vs compounds lacking a basic nitrogen or amino group at R6): 5-10 times

CC1(C)CC(=O)c2c(C(F)(F)F)nn(-c3ccc(C(N)=O)c(N[C@@H]4CCCC[C@H]4N)c3)c2C1 [Example 119, 2-((1R,2R)-2-aminocyclohexylamino)-4-(6,6-dimethyl-4-oxo-3-(trifluoromethyl)-4,5,6,7-tetrahydro-1H-indazol-1-yl)benzamide]
relative binding affinity to HSP-90 [3]: +++
pIC50 (PC-3 cell line): > 6.30

C#CCN1CCC[C@H](Nc2cc(-n3nc(C(F)(F)F)c4c3CC(C)(C)CC4=O)ccc2C(N)=O)C1 [Example 121, (S)-4-(6,6-dimethyl-4-oxo-3-(trifluoromethyl)-4,5,6,7-tetrahydro-1H-indazol-1-yl)-2-(1-(prop-2-ynyl)piperidin-3-ylamino)benzamide]
solubility (Aqueous solubility): > 10000 µg/mL

CC1(C)CC(=O)c2c(C(F)(F)F)nn(-c3ccc(C(N)=O)c(NCCSc4ncccn4)c3)c2C1 [Example 124, 4-(6,6-dimethyl-4-oxo-3-(trifluoromethyl)-4,5,6,7-tetrahydro-1H-indazol-1-yl)-2-(2-(pyrimidin-2-ylthio)ethylamino)benzamide]
pIC50 (PC-3 cell line): 5.30 to 6.30

CC(C)(C)CN[C@H]1CC[C@H](Nc2cc(-n3nc(C(F)(F)F)c4c3CC(C)(C)CC4=O)ccc2C(N)=O)CC1 [Example 140, 4-(6,6-dimethyl-4-oxo-3-(trifluoromethyl)-4,5,6,7-tetrahydro-1H-indazol-1-yl)-2-(trans-4-(neopentylamino)cyclohexylamino)benzamide]
relative binding affinity to HSP-90 [3]: +++
pIC50 (PC-3 cell line): > 6.30

CC1(C)CC(=O)c2c(C(F)(F)F)nn(-c3ccc(C(N)=O)c(NC4CCC4)c3)c2C1 [Example 148, 2-(cyclobutylamino)-4-(6,6-dimethyl-4-oxo-3-(trifluoromethyl)-4,5,6,7-tetrahydro-1H-indazol-1-yl)benzamide]
times more active in PC-3 cell line (PC-3 cell line; vs open chain butyl or alkyl analogs containing no oxygen): 20-100 times

CC1(C)CC(=O)c2c(C(F)(F)F)nn(-c3ccc(C(N)=O)c(NCCO)c3)c2C1 [Example 150, 4-(6,6-dimethyl-4-oxo-3-(trifluoromethyl)-4,5,6,7-tetrahydro-1H-indazol-1-yl)-2-(2-hydroxyethylamino)benzamide]
times more potent in PC-3 cell line (PC-3 cell line; vs alkyl analogs without oxygen): 10-30 times

CC1(C)CC(=O)c2c(CC3CC3)nn(-c3ccc(C(N)=O)c(NC4CCOCC4)c3)c2C1 [Example 157, 4-(3-(cyclopropylmethyl)-6,6-dimethyl-4-oxo-4,5,6,7-tetrahydro-1H-indazol-1-yl)-2-(tetrahydro-2H-pyran-4-ylamino)benzamide]
relative binding affinity to HSP-90 [3]: +++
pIC50 (PC-3 cell line): > 6.30

C[C@H](O)CNc1cc(-n2nc(C(F)(F)F)c3c2CC(C)(C)CC3=O)ccc1C(N)=O [Example 165, (S)-4-(6,6-dimethyl-4-oxo-3-(trifluoromethyl)-4,5,6,7-tetrahydro-1H-indazol-1-yl)-2-(2-hydroxypropylamino)benzamide]
relative binding affinity to HSP-90 [3]: +++
pIC50 (PC-3 cell line): 5.30 to 6.30

CC1(C)CC(=O)c2c(C(F)(F)F)nn(-c3ccc(C(N)=O)c(N[C@H]4CCCC[C@@H]4O)c3)c2C1 [Example 172, 4-(6,6-dimethyl-4-oxo-3-(trifluoromethyl)-4,5,6,7-tetrahydro-1H-indazol-1-yl)-2-((1S,2S)-2-hydroxycyclohexylamino)benzamide]
times more potent in PC-3 cell line (PC-3 cell line; vs cyclohexyl analogs not substituted with an oxygen atom): 20-50 times

CCc1nn(-c2ccc(C(N)=O)c(N[C@H]3CCC[C@@H]3O)c2)c2c1C(=O)CC(C)(C)C2 [Example 180, 4-(3-ethyl-6,6-dimethyl-4-oxo-4,5,6,7-tetrahydro-1H-indazol-1-yl)-2-((1S,2S)-2-hydroxycyclopentylamino)benzamide]
relative binding affinity to HSP-90 [3]: +++
pIC50 (PC-3 cell line): > 6.30

Cc1nn(-c2ccc(C(N)=O)c(N[C@H]3CCOC3)c2)c2c1C(=O)CC(C)(C)C2 [Example 181, (S)-2-(tetrahydrofuran-3-ylamino)-4-(3,6,6-trimethyl-4-oxo-4,5,6,7-tetrahydro-1H-indazol-1-yl)benzamide]
times more active in PC-3 cell line (PC-3 cell line; vs non-oxygen containing cyclopentyl analogs): 20-50 times

CCc1nn(-c2ccc(C(N)=O)c3[nH]c(C)nc23)c2c1C(=O)CC(C)(C)C2 [Example 186, 4-(3-ethyl-6,6-dimethyl-4-oxo-4,5,6,7-tetrahydro-1H-indazol-1-yl)-2-methyl-1H-benzo[d]imidazole-7-carboxamide]
relative binding affinity to HSP-90 [3]: ++
pIC50 (PC-3 cell line): 4.30 to 5.30
